Measurements: the NIST ThermoML archive (doi:10.1016/j.jct.2004.12.008)

Assay: xn = mol fraction of the nth substance listed
Settings: 101 kPa, Liquid

O=[N+]([O-])c1ccccc1 [nitrobenzene] + CCc1ccccc1
Settings	mass density [kg/m3]
293.15 K, x2 = 0	1202.95
293.15 K, x2 = 0.0478	1184.56
293.15 K, x2 = 0.1275	1154.51
293.15 K, x2 = 0.1842	1133.58
293.15 K, x2 = 0.2576	1107.04
293.15 K, x2 = 0.3238	1083.6
293.15 K, x2 = 0.4023	1056.42
293.15 K, x2 = 0.4578	1037.57
293.15 K, x2 = 0.5139	1018.83
293.15 K, x2 = 0.5813	996.7
293.15 K, x2 = 0.6423	977.03
293.15 K, x2 = 0.6931	960.9
293.15 K, x2 = 0.7592	940.24
293.15 K, x2 = 0.8343	917.18
293.15 K, x2 = 0.8824	902.65
293.15 K, x2 = 0.9587	879.94
303.15 K, x2 = 0	1193.56
303.15 K, x2 = 0.054	1172.67
303.15 K, x2 = 0.1213	1147.16
303.15 K, x2 = 0.1983	1118.67
303.15 K, x2 = 0.2489	1100.34
303.15 K, x2 = 0.3138	1077.25
303.15 K, x2 = 0.3854	1052.32
303.15 K, x2 = 0.4428	1032.74
303.15 K, x2 = 0.5098	1010.3
303.15 K, x2 = 0.5721	989.85
303.15 K, x2 = 0.6219	973.76
303.15 K, x2 = 0.6839	954.06
303.15 K, x2 = 0.7429	935.62
303.15 K, x2 = 0.8013	917.67
303.15 K, x2 = 0.8632	898.94
303.15 K, x2 = 0.9328	878.24
313.15 K, x2 = 0	1183.37
313.15 K, x2 = 0.0538	1162.71
313.15 K, x2 = 0.1387	1130.89
313.15 K, x2 = 0.1932	1110.93
313.15 K, x2 = 0.2378	1094.87
313.15 K, x2 = 0.2947	1074.72
313.15 K, x2 = 0.3571	1053.04
313.15 K, x2 = 0.4139	1033.68
313.15 K, x2 = 0.4917	1007.73
313.15 K, x2 = 0.5523	987.93
313.15 K, x2 = 0.6139	968.18
313.15 K, x2 = 0.6731	949.53
313.15 K, x2 = 0.7248	933.5
313.15 K, x2 = 0.7932	912.63
313.15 K, x2 = 0.8536	894.54
313.15 K, x2 = 0.9248	873.58
323.15 K, x2 = 0	1172.38
323.15 K, x2 = 0.0617	1149.22
323.15 K, x2 = 0.1482	1117.58
323.15 K, x2 = 0.2213	1091.54
323.15 K, x2 = 0.2787	1071.53
323.15 K, x2 = 0.3234	1056.2
323.15 K, x2 = 0.3781	1037.74
323.15 K, x2 = 0.4344	1019.07
323.15 K, x2 = 0.4822	1003.47
323.15 K, x2 = 0.5339	986.86
323.15 K, x2 = 0.592	968.49
323.15 K, x2 = 0.6739	943.12
323.15 K, x2 = 0.7429	922.2
323.15 K, x2 = 0.8137	901.15
323.15 K, x2 = 0.8735	883.68
323.15 K, x2 = 0.9572	859.66
333.15 K, x2 = 0	1160.59
333.15 K, x2 = 0.0439	1144.65
333.15 K, x2 = 0.1249	1115.84
333.15 K, x2 = 0.1892	1093.51
333.15 K, x2 = 0.2599	1069.48
333.15 K, x2 = 0.3389	1043.25
333.15 K, x2 = 0.4042	1022.06
333.15 K, x2 = 0.4672	1002.01
333.15 K, x2 = 0.5243	984.15
333.15 K, x2 = 0.5902	963.91
333.15 K, x2 = 0.6645	941.54
333.15 K, x2 = 0.7309	921.93
333.15 K, x2 = 0.8021	901.28
333.15 K, x2 = 0.8623	884.12
333.15 K, x2 = 0.8932	875.4
333.15 K, x2 = 0.9621	856.21
343.15 K, x2 = 0	1148
343.15 K, x2 = 0.0535	1129.57
343.15 K, x2 = 0.1122	1109.7
343.15 K, x2 = 0.1834	1086.08
343.15 K, x2 = 0.2478	1065.16
343.15 K, x2 = 0.3044	1047.11
343.15 K, x2 = 0.3782	1024
343.15 K, x2 = 0.4519	1001.42
343.15 K, x2 = 0.513	983.04
343.15 K, x2 = 0.5801	963.22
343.15 K, x2 = 0.6529	942.11
343.15 K, x2 = 0.7238	921.93
343.15 K, x2 = 0.7932	902.5
343.15 K, x2 = 0.852	886.31
343.15 K, x2 = 0.8932	875.09
343.15 K, x2 = 0.9423	861.85
353.15 K, x2 = 0	1134.61
353.15 K, x2 = 0.0723	1111.4
353.15 K, x2 = 0.1298	1093.3
353.15 K, x2 = 0.1984	1072.07
353.15 K, x2 = 0.2584	1053.83
353.15 K, x2 = 0.3133	1037.4
353.15 K, x2 = 0.3891	1015.12
353.15 K, x2 = 0.4501	997.51
353.15 K, x2 = 0.524	976.53
353.15 K, x2 = 0.5818	960.38
353.15 K, x2 = 0.663	938.08
353.15 K, x2 = 0.7483	915.1
353.15 K, x2 = 0.7964	902.32
353.15 K, x2 = 0.8423	890.26
353.15 K, x2 = 0.8893	878.02
353.15 K, x2 = 0.9529	861.65

O=[N+]([O-])c1ccccc1 [nitrobenzene] + Cc1ccc(C)cc1
Settings	mass density [kg/m3]
293.15 K, x2 = 0	1202.95
293.15 K, x2 = 0.0587	1179.74
293.15 K, x2 = 0.1232	1154.82
293.15 K, x2 = 0.1933	1128.38
293.15 K, x2 = 0.2516	1106.86
293.15 K, x2 = 0.3298	1078.63
293.15 K, x2 = 0.3891	1057.67
293.15 K, x2 = 0.4423	1039.19
293.15 K, x2 = 0.4983	1020.04
293.15 K, x2 = 0.5512	1002.23
293.15 K, x2 = 0.6242	978.08
293.15 K, x2 = 0.6943	955.34
293.15 K, x2 = 0.7523	936.85
293.15 K, x2 = 0.8211	915.28
293.15 K, x2 = 0.8723	899.49
293.15 K, x2 = 0.9421	878.29
303.15 K, x2 = 0	1193.56
303.15 K, x2 = 0.0623	1168.84
303.15 K, x2 = 0.1123	1149.43
303.15 K, x2 = 0.1823	1122.85
303.15 K, x2 = 0.2429	1100.38
303.15 K, x2 = 0.3189	1072.84
303.15 K, x2 = 0.3894	1047.9
303.15 K, x2 = 0.4376	1031.16
303.15 K, x2 = 0.4889	1013.63
303.15 K, x2 = 0.5321	999.06
303.15 K, x2 = 0.6078	973.98
303.15 K, x2 = 0.6731	952.79
303.15 K, x2 = 0.7561	926.4
303.15 K, x2 = 0.8247	905.05
303.15 K, x2 = 0.8871	885.97
303.15 K, x2 = 0.9316	872.57
313.15 K, x2 = 0	1183.36
313.15 K, x2 = 0.0598	1159.6
313.15 K, x2 = 0.1342	1130.81
313.15 K, x2 = 0.1732	1116.05
313.15 K, x2 = 0.2311	1094.53
313.15 K, x2 = 0.3239	1060.94
313.15 K, x2 = 0.3971	1035.18
313.15 K, x2 = 0.4576	1014.35
313.15 K, x2 = 0.514	995.29
313.15 K, x2 = 0.5672	977.61
313.15 K, x2 = 0.6234	959.24
313.15 K, x2 = 0.6831	940.06
313.15 K, x2 = 0.7421	921.43
313.15 K, x2 = 0.7901	906.5
313.15 K, x2 = 0.8611	884.8
313.15 K, x2 = 0.9287	864.54
323.15 K, x2 = 0	1172.38
323.15 K, x2 = 0.048	1153.29
323.15 K, x2 = 0.1243	1123.72
323.15 K, x2 = 0.1892	1099.28
323.15 K, x2 = 0.2572	1074.3
323.15 K, x2 = 0.3249	1050.03
323.15 K, x2 = 0.4023	1022.99
323.15 K, x2 = 0.4683	1000.47
323.15 K, x2 = 0.5138	985.24
323.15 K, x2 = 0.5871	961.14
323.15 K, x2 = 0.6422	943.39
323.15 K, x2 = 0.7139	920.72
323.15 K, x2 = 0.7811	899.92
323.15 K, x2 = 0.8428	881.17
323.15 K, x2 = 0.8781	870.6
323.15 K, x2 = 0.9424	851.62
333.15 K, x2 = 0	1160.59
333.15 K, x2 = 0.0668	1134.27
333.15 K, x2 = 0.1235	1112.51
333.15 K, x2 = 0.1983	1084.57
333.15 K, x2 = 0.2547	1064.03
333.15 K, x2 = 0.3133	1043.14
333.15 K, x2 = 0.3942	1015.02
333.15 K, x2 = 0.4789	986.4
333.15 K, x2 = 0.5287	969.96
333.15 K, x2 = 0.5902	950.01
333.15 K, x2 = 0.6517	930.44
333.15 K, x2 = 0.7244	907.78
333.15 K, x2 = 0.7923	887.08
333.15 K, x2 = 0.8321	875.13
333.15 K, x2 = 0.8832	860
333.15 K, x2 = 0.9329	845.51
343.15 K, x2 = 0	1147.99
343.15 K, x2 = 0.0623	1123.65
343.15 K, x2 = 0.1324	1097.02
343.15 K, x2 = 0.1824	1078.5
343.15 K, x2 = 0.2561	1051.86
343.15 K, x2 = 0.3249	1027.65
343.15 K, x2 = 0.3867	1006.43
343.15 K, x2 = 0.4562	983.11
343.15 K, x2 = 0.5139	964.17
343.15 K, x2 = 0.5719	945.49
343.15 K, x2 = 0.6317	926.6
343.15 K, x2 = 0.691	908.21
343.15 K, x2 = 0.7613	886.86
343.15 K, x2 = 0.8312	866.07
343.15 K, x2 = 0.8931	848.03
343.15 K, x2 = 0.9537	830.69
353.15 K, x2 = 0	1134.61
353.15 K, x2 = 0.0479	1116.05
353.15 K, x2 = 0.1123	1091.72
353.15 K, x2 = 0.1742	1068.95
353.15 K, x2 = 0.2498	1041.91
353.15 K, x2 = 0.3013	1023.94
353.15 K, x2 = 0.3781	997.79
353.15 K, x2 = 0.4538	972.7
353.15 K, x2 = 0.5247	949.8
353.15 K, x2 = 0.6149	921.44
353.15 K, x2 = 0.662	906.96
353.15 K, x2 = 0.7137	891.32
353.15 K, x2 = 0.7832	870.68
353.15 K, x2 = 0.8312	856.69
353.15 K, x2 = 0.8813	842.3
353.15 K, x2 = 0.9422	825.1
